Laboratory results taken from patent US11472807B2, “Purine derivatives for use as medicament and for use in treating neurodegenerative or neuro-inflammatory disorders” (COMMISSARIAT À L'ENERGIE ATOMIQUE ET AUX ENERGIES …, priority 2017, dated 2022).

Assays:
[1] = test system: TNF-α, IL-1β and IL-6 mRNA; assay: Cytokine mRNA in OHSC from transgenic 3×Tg-AD mice (RT-qPCR); type: cell-based, transgenic Tau mice (3×Tg-AD); conditions: OHSC from transgenic mice overexpressing P-Tau, 50-150 μM, 10 days, vs vehicle
Method: FIG. 11. Plots illustrating the effect of Aftin-5 mediated attenuation of TNF-α (A) and IL-1β (B) and IL-6 (C) in organotypic hippocampal slice cultures from wild type mice (C57BI/6J) and transgenic Tau mice (3×Tg-AD). 3 Tg organotypic hippocampal slice cultures media were replaced by incubation medium containing Aftin-5 at 50 μM (A50), 100 μM (A100) and 150 μM (A150) or vehicle (0.1% DMSO; Veh). After chronic treatment (10 days) total mRNA in lysate was isolated and purified, cDNAs were then synthesized from […] of total mRNA. cDNAs were amplified by quantitative RT-PCR and the relative expression of specific genes was normalized to the housekeeping gene HPRT1 (2^−ΔCt). […] Data expressed as means+/−SEM (n=2-6 wells/condition) from q=2 independent experiments with n=2-6 inserts/conditions and 10 slices/insert. […]
The impact of Aftin-5 on gene expression of different biomarkers was determined by measuring mRNA levels of selected BDNF, CREB, PS95, INS Receptor/IGF-1 receptor, IL-1β, IL-6 in OHSC treated chronically with Aftin-5 or in a total brain from mice exposed to Aftin-5 at either 8 or 30 mg/Kg. […] Threshold cycles (Ct) of target gene and cyclophilin A (Ppia−control housekeeping gene) were recorded and gene expression was calculated as 2^−ΔΔCt(ΔΔCt=ΔCttreated−ΔCtcontrol, ΔCt=Cttarget−CtPpia). […]

CREB = CREB mRNA in OHSC (RT-qPCR); type: cell-based; conditions: OHSCs from WT mice, 50 μM, 10 days
Method: FIG. 15. Plots illustrating the effect of Aftin-5 on relative mRNA expression levels of Long Term Potentialisation (LTP) biomarkers, i.e CREB (A), PSD95 (B) and BDNF (C) in C57B16J OHSC mice treated chronically with Aftin-5. OHSC culture media of OHSC were replaced by incubation medium containing Aftin-5 (50 μM; A50) or vehicle (0.1% DMSO; Veh). 10 days later, total mRNA in lysate was isolated and purified, cDNAs were then synthesized from […] of total mRNA. cDNAs were amplified by quantitative RT-PCR and the relative expression of specific genes was normalized to the housekeeping gene HPRT1 (2^—ΔCt). […] Data expressed as means+/−SEM from q=3 independent experiments with n=4-6 inserts/condition and 10 slices/insert. […]
The impact of Aftin-5 on gene expression of different biomarkers was determined by measuring mRNA levels of selected BDNF, CREB, PS95, INS Receptor/IGF-1 receptor, IL-1β, IL-6 in OHSC treated chronically with Aftin-5 or in a total brain from mice exposed to Aftin-5 at either 8 or 30 mg/Kg. […] RNA concentration was measured spectrophotometrically at 260 nm in a NanoDrop 2000c (Thermo Scientific, Villebon-sur-Yvette, France) (sample A260 nm/A280 nm ratios over 1.8 indicated reduced genomic DNA contamination). cDNAs were synthesized from 0.5 μg of total RNA with RT^2 First Strand kit (Qiagen, Courtaboeuf, France) according to the manufacturer's protocol and stored at −80° C. […]

IL-6 cytokine = assay: Secreted IL-6 in LPS-treated human primary glial cells (MSD ELISA); type: cell-based; conditions: LPS 6 h, then purine derivative 10 μM for 18 h
Method: For assessing the cytokine production, human primary glial cells were grown until confluent on coated collagen 12-well plates. Cells were serum-starved in glial serum-free medium for 2 h and treated with LPS for 6 h before treatment with purine derivatives (10 μM) for an additional 18 h. Supernatants were harvested and secreted IL-6 cytokine was measured by ELISA by the mean of the Meso Scale Discovery (MSD) technology. Briefly, a 96-well plate having 1 spot pre-coated with the corresponding antibody is provided by MSD Technology. Before adding the samples, a first saturation step is required. Once the plate is saturated and washed, 25 μL of sample (or calibrators) per well are loaded and incubated for 1 hour. Then the plate is washed and incubated with 25 μL of the Detection Antibody solution (MSD SULFO-TAG) for 1 hour. At the end of the incubation, the plate is washed and then a chemical solution (Read buffer 1×) is added allowing electrochemiluminescence. After a short incubation (5 min) at room temperature, the plate is read on the QUICK Plex SQ120. The instrument measures the intensity of the light electrochemiluminescence.

GSK-3β = GSK-3β activity in organotypic slice cultures from transgenic mice overexpressing phosphorylated Tau; type: cell-based
Excerpt: Unpredictably, Aftin-5 is shown herein to efficiently promote an attenuation of the phosphorylation of Tau protein (see example 5).

CC[C@H](CO)Nc1nc(N(C)c2ccccc2)c2ncn(C(C)C)c2n1 [Aftin-5]
cytokine-mRNA synthesis (TNF-α, IL-1β, IL-6) [1]: decreases | CREB mRNA (CREB): transcriptional upregulation | Anti-inflammatory Compounds (secreted IL-6) (IL-6 cytokine): +(>1 μM) (“+” means that the tested compound shows an anti-inflammatory and/or attenuation of Tau's phosphorylation property with a concentration higher than 1 μM) | activity of GSK-3β (GSK-3β): reduces
